Results reported in publication PMC5404848 (Cell Chemical Biology, 2017).
Read-outs that look alike come from different tables or passages of the source.

Legend:
[1] = target: T1, human recombinant USP2a catalytic domain (residues 258-605) (Homo sapiens, UniProt O75604); test: Ub-AMC hydrolysis assay; conditions: 30 min pre-incubation; for IC50: read-out: IC50, USP2a activity, Ub-AMC Assay
T1 sequence (O75604 258-605): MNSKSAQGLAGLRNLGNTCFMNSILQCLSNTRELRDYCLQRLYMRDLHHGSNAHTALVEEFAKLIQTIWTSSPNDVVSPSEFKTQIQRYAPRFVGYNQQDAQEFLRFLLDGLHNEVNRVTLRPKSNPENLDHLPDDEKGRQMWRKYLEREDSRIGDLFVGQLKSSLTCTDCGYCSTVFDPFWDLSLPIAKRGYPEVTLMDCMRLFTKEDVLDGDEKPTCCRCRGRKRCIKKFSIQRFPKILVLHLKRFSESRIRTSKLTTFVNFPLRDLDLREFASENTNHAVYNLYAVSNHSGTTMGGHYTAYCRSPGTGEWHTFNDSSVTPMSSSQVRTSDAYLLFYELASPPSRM
Experimental: (§4) The assays were performed using Infinite 200 PRO – Tecan plate reader and 96-well, black Greiner microplates in a 100 μl reaction volume.
Ub-AMC-hydrolysis assay was performed in a reaction buffer (50 mM Tris/HCl, pH=7.5, 1 mM EDTA, 1 mM MgCl2).
(§5) All assays were performed simultaneously in triplicate and results are presented as mean values ± SD.

[2] = target: T1, human recombinant USP2a catalytic domain (residues 258-605); test: Di-Ub K63-2 hydrolysis (FRET) assay; conditions: read-out: IC50, USP2a activity, Di-Ub Assay; Di-Ub K63-2, 30 min pre-incubation
Experimental: as §4
Di-Ub K63-2 hydrolysis assay was performed in 50 mM Tris/HCl pH=7.5, 1mM DTT. USP2a (20 nM) was preincubated with an excess of tested compound for 30 min. Fluorescence changes were recorded at excitation and emission wavelengths of 540 nm and 580 nm respectively, immediately after Di-Ub (200 nM, LifeSensors) addition.
as §5

USP7 = target: T2, USP7 (Homo sapiens, UniProt Q93009); test: Ub-AMC assay, USP7 selectivity; format: biochemical; conditions: 10 μM
T2 construct: Human USP7 catalytic domain (residues 208-561) was cloned into the pGEX-6P-1 vector; GST (N, cleaved yes); made in house; host or cells: E. coli BL21 (DE3)
Experimental: Cells were grown in LB medium containing 100 μg/ml ampicillin at 37 °C and induced with 0.5 mM IPTG at OD600 of 0.7-0.9 and cultured overnight at 16 °C. Cells were harvested by centrifugation. Next cells were resuspended in buffer A (50 mM Tris/HCl pH 9.0, 50 mM NaCl, 3 mM β-mercapthoetanol) and disrupted by sonication. Cell lysate were clarified by centrifugation (45 000 g, 40 min.) and dialyzed against buffer A. Supernatant was loaded onto Q-Sepharose column and proteins were eluted with NaCl gradient. Fractions containing GST fused USP7 were combined, concentrated and dialyzed against buffer (50 mM Tris/HCl pH 7.0, 50 mM NaCl, 3 mM β-mercapthoetanol). During dialysis protein was digested with PreScission Protease (GE Healthcare). USP7 protein and cleaved GST were separated on Mono Q HR 10/10 column (GE Healthcare). The last purification step consisted of size exclusion chromatography on HiLoad 16/60 Superdex 75 prep grade (GE Healthcare) in 50 mM Tris/HCl, 150 mM NaCl, 2 mM DTT.

HCT116 p53^wt cells [3] = test: Western blot analysis of protein expression; format: cell-based, Human; conditions: for expression of p27: 5 or 20 μM, 48 hr, HCT116 cells (Figures 2A and S3A); for expression of proteins encoded by p53-target genes (MDM2 and p21) and of p53: 24 or 48 hr
HCT116 p53^wt cells [4] = test: MTT assay (cell viability), 6 days treatment; format: cell-based, Human; conditions: for growth-inhibitory (GI) properties: cell-based assay (discussion); for LD50 (concentration killing 50% of cells): Homo sapiens, HCT-116, 144 h, read-out: LD50
Experimental: (§1) To test the biological activity of the compounds, we performed MTT (3-(4,5-dimethylthiazol-2-yl)-2,5-diphenyltetrazolium bromide) and lactate dehydrogenase (LDH) release assays. […] To track not only the toxic (lethal) but also growth-inhibitory (GI) effect in the MTT assay, we treated the cells for 6 days.
(§2) For MTT assay, the cells were seeded on 96-well transparent plates and treated the next day with the compounds or DMSO for 6 days. Thiazolyl Blue Tetrazolium Bromide (MTT, Sigma Aldrich) was added for 60 minutes to a final concentration of […]. The medium was removed and MTT crystals were dissolved in isopropanol supplemented with 40 mM HCl. The absorbance was measured with Infinite 200 microplate reader (Tecan Group Ltd.) at 570 nm with the reference wavelength 650 nm for background subtraction.

HCT116 p53^wt cells [5] = test: Western blot analysis of protein expression; format: cell-based, Human; conditions: 5 or 20 μM, 48 hr
From the text: (§3) The progression from G1 to S phase relies largely on the expression and activity of D cyclins. To verify whether the observed impairment in cell-cycle progression following LCAHA treatment is associated with D cyclins, we investigated the expression of cyclins D1 and D3 in HCT116 p53^wt and HCT116 p53^−/− cells.

HCT116 p53^−/− cells [6] = test: Western blot analysis of protein expression; format: cell-based, Human; conditions: 5 or 20 μM, 48 hr
From the text: as §3

HCT116 p53^−/− cells [7] = test: MTT assay (cell viability), 6 days treatment; format: cell-based, Human
Experimental: as §1, §2

[8] = Solubility problems in cell line experiment or enzymatic assay; format: physicochemical; conditions: in either the cell line experiment or the enzymatic assay
USP2a = test system: USP2a; set-up: method as in Nicholson et al., 2008; conditions: ref Nicholson et al., 2008; read-out: EC50 (previously reported); cited from earlier work
HCT116 p53^wt cells [9] = test: Caspase 3/7 activity (Caspase-Glo 3/7); format: cell-based, Human; conditions: staurosporine treatment (apoptosis inducer control)
Experimental: To evaluate whether the observed effects are accompanied by the induction of apoptosis, we examined the activation of caspases 3 and 7 in HCT116 p53^wt cells.
The cells were plated on the 96-well white, flat bottom plates (Falcon) and treated with DMSO, LCAHA or Staurosporine. For the detection of caspase activity Caspase-Glo 3/7 Assay System was used (Promega) according to the manufacturer’s instructions.

[10] = Homo sapiens, HCT-116, 144 h, read-out: LD50

T2 sequence (Q93009 208-561): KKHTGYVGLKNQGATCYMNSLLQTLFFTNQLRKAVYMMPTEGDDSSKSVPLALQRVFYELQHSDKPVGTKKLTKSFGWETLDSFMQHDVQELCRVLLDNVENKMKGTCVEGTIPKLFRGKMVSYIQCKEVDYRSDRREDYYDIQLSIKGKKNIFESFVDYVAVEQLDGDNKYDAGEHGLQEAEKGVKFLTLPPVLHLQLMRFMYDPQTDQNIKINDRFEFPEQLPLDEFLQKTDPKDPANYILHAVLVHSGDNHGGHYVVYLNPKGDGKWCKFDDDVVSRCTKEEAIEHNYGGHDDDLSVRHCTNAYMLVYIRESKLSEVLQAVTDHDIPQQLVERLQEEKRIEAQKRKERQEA

With C[C@H](CCC(=O)O)[C@H]1CC[C@H]2[C@@H]3[C@H](O)C[C@@H]4C[C@H](O)CC[C@]4(C)[C@H]3C[C@H](O)[C@]12C [CGG, cholic acid, reference compound] the “IC50, USP2a activity, Ub-AMC Assay” value [1] was “not active” and the IC50 [2] was greater than 100 µM.
For C[C@H](CCC(=O)O)[C@H]1CC[C@H]2[C@@H]3CC[C@@H]4C[C@H](O)CC[C@]4(C)[C@H]3CC[C@]12C [LCA, Lithocholic acid, reference compound], the IC50 [1] was 31.1 ± 3.4 µM, the “inhibition of USP7 protein activity” value (USP7) was “no inhibition” and the “expression of p27” value (HCT116 p53^wt cells [3]) was “not altered”. For the same compound, the “expression of proteins encoded by p53-target genes (MDM2 and p21) and of p53” value (HCT116 p53^wt cells [3]) was “did not induce”, the “growth-inhibitory (GI) properties” value (HCT116 p53^wt cells [4]) was “inactive in the inhibition of cell growth” and the IC50 [2] was 32 ± 3.2 µM. The “cyclin D1 expression” value (HCT116 p53^wt cells [5]) was “did not affect”, the “cyclin D3 expression” value (HCT116 p53^wt cells [5]) was “significantly increased” and the “cyclin D1 expression” value (HCT116 p53^−/− cells [6]) was “did not affect”. The “cyclin D3 expression” value (HCT116 p53^−/− cells [6]) was “significantly increased”.
In the case of C[C@H](CCC(=O)NCC#N)[C@H]1CC[C@H]2[C@@H]3CC[C@@H]4C[C@H](O)CC[C@]4(C)[C@H]3CC[C@]12C [LCACN, N-(cyanomethyl)-3-hydroxylithocholanamide], the IC50 [1] is reported as 7.4 ± 1.2 µM, the LD50 (concentration killing 50% of cells) (HCT116 p53^wt cells [4]) is reported as 28 ± 0.7 µM and the LD50 (HCT116 p53^−/− cells [7]; [10]) is reported as 29.9 ± 3.2 µM. For the same compound, the IC50 [2] was 13.9 ± 2.3 µM and the solubility [8] was “solubility problems”.
With CC(=O)O[C@@H]1CC[C@@]2(C)[C@H](CC[C@@H]3[C@@H]2CC[C@]2(C)[C@@H]([C@H](C)CCC(=O)O)CC[C@@H]32)C1 [LCAE, 3-Acetoxy-Lithocholic Acid] the “expression of p27” value (HCT116 p53^wt cells [3]) was “not altered”, the “expression of proteins encoded by p53-target genes (MDM2 and p21) and of p53” value (HCT116 p53^wt cells [3]) was “did not induce” and the “growth-inhibitory (GI) properties” value (HCT116 p53^wt cells [4]) was “no GI properties”. The “cyclin D1 expression” value (HCT116 p53^wt cells [5]) was “decreased the expression of the protein”, the “cyclin D3 expression” value (HCT116 p53^wt cells [5]) was “no effect” and the “cyclin D3 expression” value (HCT116 p53^−/− cells [6]) was “no effect”.
C[C@H](CCC(=O)NCC(=O)O)[C@H]1CC[C@H]2[C@@H]3CC[C@@H]4C[C@H](O)CC[C@]4(C)[C@H]3CC[C@]12C [LCAGLY, N-(3-hydroxylithocholanolyl)glycine] showed an IC50 [1] greater than 50 µM and an IC50 [2] greater than 50 µM.
Work on C[C@H](CCC(=O)O)[C@H]1CC[C@H]2[C@@H]3CC[C@@H]4CC(=O)CC[C@]4(C)[C@H]3CC[C@]12C [LCAK, 3-Oxo-Lithocholic Acid] yielded an IC50 [1] of 32 ± 1.8 µM and an IC50 [2] of 33.1 ± 3.2 µM.
Compound COC(=O)CC[C@@H](C)[C@H]1CC[C@H]2[C@@H]3CC[C@@H]4C[C@H](O)CC[C@]4(C)[C@H]3CC[C@]12C [LCAME, Methyl 3-Hydroxylithocholanoate] has an IC50 [1] greater than 50 µM, an LD50 (HCT116 p53^wt cells [4]; HCT116^wt, MTT assay, 6 days) of 20.5 ± 1.1 µM and an LD50 (HCT116 p53^−/− cells [7]; HCT116 p53^−/−, MTT assay, 6 days) of 35.1 ± 4.8 µM. For the same compound, the IC50 [2] was greater than 50 µM.
C[C@H](CCC(=O)N1CCOCC1)[C@H]1CC[C@H]2[C@@H]3CC[C@@H]4C[C@H](O)CC[C@]4(C)[C@H]3CC[C@]12C [LCAMR, N-lithocholanolyl Morpholine] gave an IC50 [1] greater than 100 µM, an LD50 (concentration killing 50% of cells) (HCT116 p53^wt cells [4]) of 8.2 ± 0.7 µM and an LD50 (HCT116 p53^−/− cells [7]; [10]) of 7.9 ± 0.7 µM. For the same compound, the IC50 [2] was greater than 100 µM.
With C[C@H](CCC(N)=O)[C@H]1CC[C@H]2[C@@H]3CC[C@@H]4C[C@H](O)CC[C@]4(C)[C@H]3CC[C@]12C [LCANH2, 3-hydroxylithocholanamide] the IC50 [1] was 27.9 ± 1 µM, the LD50 (concentration killing 50% of cells) (HCT116 p53^wt cells [4]) was 24.5 ± 0.9 µM and the LD50 (HCT116 p53^−/− cells [7]; [10]) was 41.8 ± 2.7 µM. It also gave an IC50 [2] of 16.7 ± 1.3 µM.
In the case of Cc1ccc(/C=C2\CNC/C(=C\c3ccc(C)cc3)C2=O)cc1 [NSC 632839, reference compound], the IC50 [1] is listed as 39.1 ± 6.4 µM, the EC50 (USP2a) is listed as 45 ± 4 µM and the IC50 [2] is listed as greater than 50 µM.
With C[C@H](CCC(=O)NCCS(=O)(=O)O)[C@H]1CC[C@H]2[C@@H]3[C@H](O)C[C@@H]4C[C@H](O)CC[C@]4(C)[C@H]3C[C@H](O)[C@]12C [TCAS, taurocholic acid, reference compound] the “IC50, USP2a activity, Ub-AMC Assay” value [1] was “not active”.
In the case of C[C@H](CCC(=O)O)[C@H]1CC[C@H]2[C@@H]3[C@@H](O)C[C@@H]4C[C@H](O)CC[C@]4(C)[C@H]3CC[C@]12C [UDCA, ursodeoxycholic acid, reference compound], the “IC50, USP2a activity, Ub-AMC Assay” value [1] is reported as “not active” and the IC50 [2] is reported as greater than 100 µM.
In the case of CN[C@@H]1C[C@H]2O[C@@](C)([C@@H]1OC)n1c3ccccc3c3c4c(c5c6ccccc6n2c5c31)C(=O)NC4 [staurosporine, reference compound], the “activity of caspases 3 and 7” value (HCT116 p53^wt cells [9]) is reported as “strong increase”.
